Assay results as given in patent US12433892B2, “Compositions and methods of treatment for neurological disorders comprising depression” (Gliapharm SA, priority 2018, dated 2025).
Where a name gives a salt, the structure may show the parent alone.

Key:
[1] = tested on: primary astrocytes; experiment: Intracellular glycogen quantification, Example 2; format: cell-based, mouse; conditions: 10 μM, 3 h (GP-0157: 0.1, 1, 10 μM)
Description: To assess for the effect of the compounds of the invention, those were tested in primary astrocytes, as described below. Secretion of lactate was measured directly in the extracellular medium, and indirectly through the acidification of extracellular medium using extracellular pH sensor SNARE-5F-(AND-6)-CAR (SNARF5). Glucose uptake was measured by quantification 2-deoxyglucose in the cell. Cell Cultures Primary cultures of cerebrocortical astrocytes were obtained from 1 to 2-day-old OF1 mouse pups (Charles River). Briefly, cortices were isolated and minced in small pieces under a dissecting microscope. The cells were incubated for 30 min at 37° C. in a solution containing 20 U/ml papain, 1 mM L-cysteine and 10 kU/ml DNase I. After dissociation, papain activity was stopped by the addition of fetal calf serum (FCS). Single-cell suspension was then obtained by mechanical dissociation, which consisted in cells trituration in a DMEM D7777 medium supplemented with 44 mm NaHCO3, 10 ml/L antibiotic/antimycotic solution and 10% FCS. The cells were seeded at an average density of ˜10'000 cells/cm2 on poly-D-lysine coated 96- or 12-well culture plates, depending on their use, and grown in DMEM D7777 medium supplemented with 44 mm NaHCO3, 10 ml/L antibiotic/antimycotic solution and 10% FCS at 37° C. in a humidified atmosphere containing 5% CO2/95% air. Culture medium was renewed twice a week. Cells were stimulated and harvested between DIV14 and DIV17, when confluence and cell growth were optimal. Extracellular Medium Acidification (SNARF5) Secretion of lactate was measured indirectly through the acidification of extracellular medium using extracellular pH sensor […] (SNARF5). After washing cells twice with stimulation medium (DMEM (D5030, Sigma), 1 mM NaHCO2, and 5 mM Glucose, pH 7.4) at 37° C., cells were stimulated with compounds at a final concentration ranging from 10 nM to 30 μM in 50 μl per well of stimulation medium supplemented with 10 μM of SNARF5 (Life Technologies Corporation). Each compound was tested in two different plates for duplicates. After 90 min stimulation, fluorescence was read at exc. (excitation) 480 nm/emm. (emission) 580 nm and at exc 480 nm/emm. 630 nm. The ratio of fluorescence between 630 nm and 580 emission values, which is proportional to extracellular pH, was calculated. In each plate, 8 wells were used for negative controls (DMSO 0.1%) and 8 wells were used for positive controls (CCCP 2 μM in DMSO). The extracellular medium acidification in primary mouse astrocytes treated with GP-A1 was quantified (FIG. 13). Extracellular medium acidification was measured over a period of 1.5 h and 3 h. […] Extracellular Lactate Quantification Secretion of L-lactate was measured in the extracellular medium of 96-well plated astrocytes after 90 min stimulation (at 37° C., in 5% CO2/95% air conditions) with Vehicle (DMSO), the compounds of the invention (100 nM to 100 μM) or positive control. […] Stimulation medium was composed of D5030 medium complemented with 5 mM D-glucose and 44 mM sodium bicarbonate, pH 7.2. To quantify lactate concentrations in the extracellular medium, 200 μl of a 0.2M Glycine-semicarbazide buffer (pH 10) containing 3 mM NAD and 14 U/ml LDH was added to each well of a 96-well plate containing 30 μl aliquots of extracellular medium. Samples were incubated at 37° C. for 1 h. Fluorescence intensity (340 nm excitation/450 nm emission), which represents the amount of NADH produced, was measured, and lactate concentration values were determined relative to a standard curve of L-lactate concentrations. The release of lactate from primary mouse astrocytes treated with GP-A1 was quantified (FIG. 5A and FIG. 14). Accumulation of lactate in the extracellular medium was measured over a period of 1.5 h. […] Intracellular Glycogen Quantification Astrocytes grown on 12-well plates were used for intracellular glycogen quantifications. […]

[2] = tested on: C57Bl/6 male and female mice; experiment: In vivo chronic toxicity (28 days); conditions: 10 mg/kg per os once a day, 28 days
Description: During this period, clinical symptoms and weight were recorded.
Chronic toxicity was assessed.

[3] = tested on: cerebral extracellular lactate; experiment: In vivo pharmacodynamics: lactate biosensors in cortex; set-up: species or system mouse
Description: Extracellular levels of lactate were monitored in vivo using lactate biosensors (Pinnacle Technology), according to the manufacturer's instructions. Cannulae were surgically implanted in mice cerebral cerebral motor cortex areas M1/M2 (coordinates: +1.94 mm (to bregma), lateral −1.4 mm (to mideline), ventral −1.0 mm (to dura)) 5-7 days before administration of the compounds. Drugs were administered per os as previously described, and cerebral levels of extracellular lactate were dynamically recorded for 6 hours. Mice were administered vehicle alone first, followed 3 hours later by vehicle or drug (10 or 100 mg/kg). Area Under the Curve (AUC) quantifying the fluctuations of extracellular lactate concentrations for each of the compound tested was calculated using Graphad Prism and the ratio of AUC after drug over Vehicle administration was calculated. Groups of 8 male mice were used for each condition.
To measure biological effect of lead molecules in vivo in the brain, lactate levels were quantified after administration of the drug by using lactate biosensors implanted in the cortex of freely moving mice.

[4] = In vivo pharmacokinetics (PFC microdialysis and plasma); set-up: species or system mouse; conditions: after gavage with 100 mg/kg
Description: Mice were anesthetized using isoflurane (2% and 800 mL/min O2). Before surgery, Finadyne (1 mg/kg, s.c.) was administered for analgesia during surgery and the post-surgical recovery period. A mixture of bupivacaine and epinephrine was used for local anesthesia of the incision site of the periost of the skull.
The animals were placed in a stereotaxic frame (Kopf instruments, USA). MetaQuant microdialysis probes with a 3 mm exposed polyacrylonitrile membrane (MQ-PAN 3/3, Brainlink, the Netherlands) were implanted into the prefrontal cortex (coordinates for the tip of the probe: AP=+2.0 mm (to bregma), lateral=−0.7 mm (to midline), ventral=−3.3 mm (to dura), with the incisor bar set at 0.0 mm and an angle of 8°). All coordinates were based on “The mouse brain in stereotaxic coordinates” by Paxinos and Franklin (2004). The probes were attached to the skull with a stainless steel screw and dental cement (Fuji Plus Capsules, Henry Schein, the Netherlands).
In the same surgical procedure, a catheter was placed into the jugular vein to accommodate blood sampling. An indwelling cannula was inserted into the right jugular vein, and exteriorized through an incision on top of the skull. The end of the jugular vein catheter was fixed in position with dental acrylic cement and attached to the skull with two stainless steel screws.
Experiments were initiated one day after surgery. The MetaQuant microdialysis probes were connected with flexible PEEK tubing (Western Analytical Products Inc. USA; PK005-020) to a microperfusion pump (CMA Microdialysis) and perfused with aCSF+0.2% BSA at a flow rate of 0.12 μL/min. Ultrapurified water+0.2% BSA was used as the carrier flow at a flow rate of 0.80 μL/min. After a minimum of 1.5 hours of prestabilization, microdialysis samples were collected in 30 minute intervals. Samples were collected into polystyrene microvials (Microbiotech/se AB, Sweden; 4001029) using an automated fraction collector (UV 8301501, TSE, Univentor, Malta). After collection of three basal samples, at t=0 minutes, drug of interest was administered per os. Eight additional samples were collected after compound administration. All samples were stored at −80° C. until off-line analysis.
In parallel, blood samples (50 μL) were taken from the jugular vein through the cannula. These samples were collected at specified intervals into vials containing 5 μL heparin (500 IE/mL in saline). The samples were mixed by inverting the tubes and, subsequently, centrifuged at 4000 rpm (1500×g) for 10 min at 4° C. The supernatant was stored as plasma in 1.5 mL Eppendorf vials (Sarstedt, Germany) at −80° C. until off-line analysis.
At the end of the experiment, the animals were euthanized and terminal brain tissue was collected for visual histological verification of the probe positions.
PK was measured for GP-04, GP-05, GP-07, GP-R1 and GP-P1 in the PFC (prefrontal cortex) and plasma of wild type C56Bl/6 mice by CRO Brainsonline.

[5] = tested on: astrocytes; experiment: Intracellular glycogen quantification; format: cell-based, mouse; conditions: Prestwick hits; 10 uM, 3 h
Description: For glycogen dosage, a protein dosage was first performed in order to assess whether harvested astrocytes from primary cell cultures yielded enough and equivalent amounts of proteins comparing each replicate, and to ensure that the obtained differences in glycogen quantities were due to drug action and not to inner protein quantities.
Astrocytes used for these dosages were previously grown in 6-well plates for 17 days and stimulated with Vehicle (DMSO) or drug of interest (1 μM to 100 μM) for 180 min, at 37° C. 5% CO2/95% air in D5030 complete medium. Medium was removed and replaced with 600 μl of 30 mM Tris HCl, and stored at −20° C.
Proteins were dosed using the micro BCA Protein Assay kit (Thermo Scientific), as described in the manufacturer's instructions. Briefly, thawed cells were sonicated and 5 μl aliquots were placed in a transparent 96-well plate, to which we added 25 μl 30 mM Tris HCl, 70 μl H2O and 100 μl of a BCA mix (made as described in manufacturer's guidelines). After a 120 min-incubation at 37° C., absorbance was measured with Safire 2 spectrophotometer at a wavelength of 562 nm, and protein quantities were determined from a standard curve of Bovine Serum Albumin (BSA).
Glycogen was quantified using a 250 μl-aliquot of the same stimulated, thawed, and sonicated cells. After an incubation period of 30 min at 90° C. and 400 rpm, 28 μl of an acetic acid/sodium acetate (both from Sigma) 0.1M pH 4.6 buffer was added to each aliquot, which was then separated in two. Each split aliquot received whether 5 μl of amyloglucosidase (Roche) or 5 μl H2O, and all cell solutions were incubated for 120 min in a shaking 37° C.-waterbath. After a centrifugation at 16'000 G for 5 min, 20 μl of supernatant were placed 96-well plate, to which 150 μl of a mix containing 0.67 mM ATP (Roche), 0.67 mM NADP (Roche), 1.8% hexokinase/glucose-6-phosphate dehydrogenase (Roche) and 0.1M Tris Buffer-HCl/3.3 mM magnesium (Fluka)/pH 8.1 buffer was added. Fluorescence was measured with Safire 2 spectrophotometer (340 nm excitation/440 nm emission). Glycogen concentration was obtained by subtracting glucose value of samples with amyloglucosidase to samples without amyloglucosidase, and were expressed relative to the amount of proteins previously determined.
Levels of intracellular glycogen in astrocytes were measured at 3 h after stimulation with 20 hits from the Prestwick library (10 μM each), as shown in FIG. 2. n=6-10; Ctrl pos. is glutamate (0.5 mM). Statistical analysis consisted in ANOVA followed by Fisher LSD post-hoc test for pair-wise comparisons.
Statistical analysis consisted in ANOVA followed by Fisher LSD post-hoc test for pair-wise comparisons.

[6] = tested on: astrocytes; experiment: Intracellular glycogen quantification; format: cell-based, mouse; conditions: CDC54K hits; 10 uM, 3 h

SMILES | mobilization of intracellular glycogen [1] | levels in the PFC [4] | also measured
O=C1CCCN1c1ccc(S(=O)(=O)Nc2cccc(/C=C/c3ccccn3)c2)cc1 [T5644989] | significantly enhance the mobilization of intracellular glycogen | – | –
CCc1nc(-c2csc(S(=O)(=O)NCc3ccc4c(c3)OCO4)c2)no1 [L287-0468] | significantly enhance the mobilization of intracellular glycogen | – | –
C[N+]1(C)CCC(=C(c2ccccc2)c2ccccc2)CC1 [Diphemanil methylsulfate] | – | at therapeutic range (100 nM to 1 uM) and sustained over several hours | chronic toxicity (toxic or safe) [2]: safe; cerebral lactate (AUC ratio vs vehicle) ([3]; 10 mg/kg per os): Significant increase; Glycogen (statistical significance of glycogen degradation) [5]: **** (****p<0.0001)
CCn1nccc1-c1csc(S(=O)(=O)Nc2ccc(Cl)cc2F)c1 [L924-1031] | significantly enhance the mobilization of intracellular glycogen | – | –
COc1ccc(Nc2nc(N3CCOCC3)c3ccccc3n2)cc1.Cl [T0508-5190] | significantly enhance the mobilization of intracellular glycogen | – | Glycogen (statistical significance of glycogen degradation) [6]: ** (**p<0.01)
CC(=O)N1CCc2sc(S(=O)(=O)N3CCN(c4ccccc4C)CC3)cc2C1 [P025-0159] | significantly enhance the mobilization of intracellular glycogen | need chemical improvement to reach their target at therapeutic dose in the brain | cerebral lactate (AUC ratio vs vehicle) ([3]; 100 mg/kg per os): Significant increase
COc1cccc(CNS(=O)(=O)c2ccc3c(c2)CCCN3C(C)=O)c1 [T5967389] | – | – | Glycogen (statistical significance of glycogen degradation) [6]: * (*p<0.05)
COc1cc(C)c(Cl)cc1S(=O)(=O)NCc1ccncc1 [T5580243] | – | at therapeutic range (100 nM to 1 uM) and sustained over several hours | cerebral lactate (AUC ratio vs vehicle) ([3]; 100 mg/kg per os): Significant increase
c1ccc2c(c1)CCN(c1ncnc3sccc13)C2 [T0517-8250] | significantly enhance the mobilization of intracellular glycogen | – | –
Cc1nc2ccc(NS(=O)(=O)c3cccc(F)c3)cc2s1 [T6937001] | significantly enhance the mobilization of intracellular glycogen | – | –
N=C(N)N1CCc2ccccc2C1 [Debrisoquin sulfate] | – | at therapeutic range (100 nM to 1 uM) and sustained over several hours | cerebral lactate (AUC ratio vs vehicle) ([3]; 10 mg/kg per os): Significant increase; Glycogen (statistical significance of glycogen degradation) [5]: **** (****p<0.0001)
Cc1ccccc1NC(=O)C1CCCN(c2ncnc3oc(C)c(C)c23)C1 (centres unmarked) [F228-0422] | significantly enhance the mobilization of intracellular glycogen | – | –
N#Cc1ccc(C(=O)N2CCC(Nc3ncnc4c3CCC4)C2)cc1 (centres unmarked) [T636-2387] | significantly enhance the mobilization of intracellular glycogen | – | cerebral lactate (AUC ratio vs vehicle) ([3]; 100 mg/kg per os): Significant increase
